What all share (format): functional, cell-based
Series [1] has as its target T1, ATP-dependent translocase ABCB1 (Homo sapiens, UniProt P08183). Nature of the series: TP_TRANSPORTER: increase in Calcein-AM intracellular accumulation (Calcein-AM: 0.5uM, Nonidet P-40:6x10-4a%) in MDR1-expressing NIH-3T3 cells. To be noted: mouse, nih3t3.
The target in series [2] is T1, ATP-dependent translocase ABCB1. Briefly: TP_TRANSPORTER: increase in Calcein-AM intracellular accumulation (Calcein-AM: 0.5 uM, Hoechst 33342: 50 uM) in MDR1-expressing NIH-3T3 cells. To be noted: mouse, nih3t3, 50 µM.
Series [3] shares this target. Nature of the series: TP_TRANSPORTER: increase in Calcein-AM intracellular accumulation (Calcein-AM: 0.5 uM, m-Amsacrine: 5 uM) in MDR1-expressing NIH-3T3 cells. To be noted: mouse, nih3t3, 5 µM.
For series [4] the target is unchanged. Nature of the series: TP_TRANSPORTER: increase in Calcein-AM intracellular accumulation (Calcein-AM: 0.5 uM, Benzocaine: 20 uM) in MDR1-expressing NIH-3T3 cells. The settings on record: mouse, nih3t3, 20 µM.
For series [5] the target is unchanged. Briefly: TP_TRANSPORTER: increase in Calcein-AM intracellular accumulation (Calcein-AM: 0.5 uM, Colchicine: 100 uM) in MDR1-expressing NIH-3T3 cells. The settings on record: mouse, nih3t3, 100 µM.
Series [6] has the same target. Briefly: TP_TRANSPORTER: increase in Calcein-AM intracellular accumulation (Calcein-AM: 0.5 uM, Actinomycin D: 40 uM) in MDR1-expressing NIH-3T3 cells. The settings on record: mouse, nih3t3, 40 µM.
The target is the same in series [7]. Nature of the series: TP_TRANSPORTER: increase in Calcein-AM intracellular accumulation (Calcein-AM: 0.5 uM, Desipramine: 20 uM) in MDR1-expressing NIH-3T3 cells. To be noted: mouse, nih3t3, 20 µM.
Series [8] shares this target. Nature of the series: TP_TRANSPORTER: increase in Calcein-AM intracellular accumulation (Calcein-AM: 0.5 uM, Galangin: 50 uM) in MDR1-expressing NIH-3T3 cells. The settings on record: mouse, nih3t3, 50 µM.
The target is the same in series [9]. Nature of the series: TP_TRANSPORTER: increase in Calcein-AM intracellular accumulation (Calcein-AM: 0.5 uM, Genistein: 40 uM) in MDR1-expressing NIH-3T3 cells. The settings on record: mouse, nih3t3, 40 µM.
For series [10] the target is unchanged. Briefly: TP_TRANSPORTER: increase in Calcein-AM intracellular accumulation (Calcein-AM: 0.5 uM, Gramicidin D: 10 uM) in MDR1-expressing NIH-3T3 cells. The settings on record: mouse, nih3t3, 10 µM.
The target is the same in series [11]. Nature of the series: TP_TRANSPORTER: increase in Calcein-AM intracellular accumulation (Calcein-AM: 0.5 uM, Haloperidol: 80 uM) in MDR1-expressing NIH-3T3 cells. To be noted: mouse, nih3t3, 80 µM.
For series [12] the target is unchanged. Briefly: TP_TRANSPORTER: increase in Calcein-AM intracellular accumulation (Calcein-AM: 0.5 uM, Imipramine: 20 uM) in MDR1-expressing NIH-3T3 cells. The settings on record: mouse, nih3t3, 20 µM.
For series [13] the target is unchanged. Briefly: TP_TRANSPORTER: increase in Calcein-AM intracellular accumulation (Calcein-AM: 0.5 uM, Lidocaine: 20 uM) in MDR1-expressing NIH-3T3 cells. To be noted: mouse, nih3t3, 20 µM.
For series [14] the target is unchanged. Briefly: TP_TRANSPORTER: increase in Calcein-AM intracellular accumulation (Calcein-AM: 0.5 uM, Mibefradil: 18 uM) in MDR1-expressing NIH-3T3 cells. The settings on record: mouse, nih3t3, 18 µM.
Series [15] has the same target. Briefly: TP_TRANSPORTER: increase in Calcein-AM intracellular accumulation (Calcein-AM: 0.5 uM, Mitomycin C: 20 uM) in MDR1-expressing NIH-3T3 cells. The settings on record: mouse, nih3t3, 20 µM.

*1 amine or outer side, *2 acyl side, *3 side chain or, on linkers, in order; H or OH if unused. Where a SMILES comes first, the peptide text is derived from it. Bridges are numbered along the chain shown (N, C = ends). Roman numbers before positions name the chains, in order. [ ]: non-standard residue; d: D form. The star is where a group is joined. Actinocin(9to1) = Cc1c2oc3c(C)ccc(C(=O)[*:1])c3nc-2c(C(=O)[*:2])c(N)c1=O; NMeV = CN[C@H](C(=O)O)C(C)C; NHCH2CH2OH = OCCN*; Sar = CNCC(=O)O; For = O=C*

T1 sequence (P08183 whole entry): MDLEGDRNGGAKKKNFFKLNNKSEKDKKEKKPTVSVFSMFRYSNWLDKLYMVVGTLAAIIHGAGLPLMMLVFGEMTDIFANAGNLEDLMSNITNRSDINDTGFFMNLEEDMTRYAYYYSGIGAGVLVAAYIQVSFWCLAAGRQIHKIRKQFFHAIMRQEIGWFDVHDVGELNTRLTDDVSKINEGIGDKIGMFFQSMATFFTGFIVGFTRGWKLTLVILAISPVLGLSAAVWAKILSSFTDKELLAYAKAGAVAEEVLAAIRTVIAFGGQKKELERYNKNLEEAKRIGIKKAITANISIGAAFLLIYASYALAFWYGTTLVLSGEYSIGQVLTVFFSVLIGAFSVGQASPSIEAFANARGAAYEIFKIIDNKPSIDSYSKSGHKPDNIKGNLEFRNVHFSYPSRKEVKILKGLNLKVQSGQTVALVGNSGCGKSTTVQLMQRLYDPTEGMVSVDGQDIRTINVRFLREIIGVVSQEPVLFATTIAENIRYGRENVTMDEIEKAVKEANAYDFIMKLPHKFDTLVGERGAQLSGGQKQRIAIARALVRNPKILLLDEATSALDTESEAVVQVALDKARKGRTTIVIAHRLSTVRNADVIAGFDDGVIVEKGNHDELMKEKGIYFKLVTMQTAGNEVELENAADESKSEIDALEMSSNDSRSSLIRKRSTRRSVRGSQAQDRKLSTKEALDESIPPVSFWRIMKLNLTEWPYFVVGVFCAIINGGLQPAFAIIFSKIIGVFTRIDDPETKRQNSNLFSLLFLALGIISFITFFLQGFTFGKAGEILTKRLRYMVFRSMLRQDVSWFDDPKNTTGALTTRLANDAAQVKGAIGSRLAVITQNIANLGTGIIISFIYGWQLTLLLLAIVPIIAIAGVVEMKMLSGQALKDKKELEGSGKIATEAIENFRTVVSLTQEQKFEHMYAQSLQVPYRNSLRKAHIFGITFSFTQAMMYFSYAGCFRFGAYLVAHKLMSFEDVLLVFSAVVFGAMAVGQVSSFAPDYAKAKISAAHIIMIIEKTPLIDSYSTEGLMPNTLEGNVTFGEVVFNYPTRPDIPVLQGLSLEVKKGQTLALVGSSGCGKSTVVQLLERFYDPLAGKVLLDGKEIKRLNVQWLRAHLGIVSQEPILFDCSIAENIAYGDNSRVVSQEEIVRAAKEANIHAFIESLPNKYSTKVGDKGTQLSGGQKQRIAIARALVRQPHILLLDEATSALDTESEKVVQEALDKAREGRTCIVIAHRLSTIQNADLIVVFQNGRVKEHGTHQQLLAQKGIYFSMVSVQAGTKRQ

Turning to `CC(C)(C)CC(C)(C)c1ccc(OCCOCCO)cc1`, the Activity result in [1] is “inhibitor [+]”.
Regarding `CCOc1ccc(-c2nc3cc(-c4nc5cc(N6CCN(C)CC6)ccc5[nH]4)ccc3[nH]2)cc1`, the Activity entry in series [2] is “is not an inhibitor [-]”.
For `COc1cc(NS(C)(=O)=O)ccc1Nc1c2ccccc2nc2ccccc12` [AMSACRINE], the Activity result in series [3] is “inhibitor [+]”.
For the molecule `CCOC(=O)c1ccc(N)cc1` [BENZOCAINE], in [4], the Activity result was “inhibitor [+]”.
Regarding `COc1cc2c(c(OC)c1OC)-c1ccc(OC)c(=O)cc1[C@@H](NC(C)=O)CC2` [COLCHICINE], the Activity result in series [5] was “is not an inhibitor [-]”.
For `Cc1c2oc3c(C)ccc(C(=O)N[C@@H]4C(=O)N[C@H](C(C)C)C(=O)N5CCC[C@H]5C(=O)N(C)CC(=O)N(C)[C@@H](C(C)C)C(=O)O[C@@H]4C)c3nc-2c(C(=O)N[C@@H]2C(=O)N[C@H](C(C)C)C(=O)N3CCC[C@H]3C(=O)N(C)CC(=O)N(C)[C@@H](C(C)C)C(=O)O[C@@H]2C)c(N)c1=O` [DACTINOMYCIN] (I: T[dV]P[Sar][NMeV] / II: T[dV]P[Sar][NMeV]; ester I:1-I:C, II:1-II:C; linker I:N-II:N via Actinocin(9to1)), in series [6], the Activity entry is “inhibitor [+]”.
Take `CNCCCN1c2ccccc2CCc2ccccc21` [DESIPRAMINE]: in [7], the Activity entry is “inhibitor [+]”.
Take `O=c1c(O)c(-c2ccccc2)oc2cc(O)cc(O)c12` [GALANGIN]: in [8], the Activity result was “inhibitor [+]”.
In the case of `O=c1c(-c2ccc(O)cc2)coc2cc(O)cc(O)c12` [GENISTEIN], the Activity result in series [9] was “inhibitor [+]”.
With `CC(C)C[C@@H](NC(=O)[C@H](C)NC(=O)CNC(=O)[C@@H](NC=O)C(C)C)C(=O)N[C@@H](C)C(=O)N[C@@H](C(=O)N[C@H](C(=O)N[C@@H](C(=O)N[C@@H](Cc1c[nH]c2ccccc12)C(=O)N[C@H](CC(C)C)C(=O)N[C@@H](Cc1c[nH]c2ccccc12)C(=O)N[C@H](CC(C)C)C(=O)N[C@@H](Cc1c[nH]c2ccccc12)C(=O)N[C@H](CC(C)C)C(=O)N[C@@H](Cc1c[nH]c2ccccc12)C(=O)NCCO)C(C)C)C(C)C)C(C)C` [GRAMICIDIN D] (For-VGA[dL]A[dV]V[dV]W[dL]W[dL]W[dL]W-NHCH2CH2OH), the Activity entry in series [10] is “is not an inhibitor [-]”.
`O=C(CCCN1CCC(O)(c2ccc(Cl)cc2)CC1)c1ccc(F)cc1` [HALOPERIDOL]: in series [11], the Activity entry is “inhibitor [+]”.
As to `CN(C)CCCN1c2ccccc2CCc2ccccc21` [IMIPRAMINE], in series [12], the Activity entry was “inhibitor [+]”.
Regarding `CCN(CC)CC(=O)Nc1c(C)cccc1C` [LIDOCAINE], the Activity result in [13] is “is not an inhibitor [-]”.
For the molecule `COCC(=O)O[C@]1(CCN(C)CCCc2nc3ccccc3[nH]2)CCc2cc(F)ccc2[C@@H]1C(C)C` [MIBEFRADIL], the Activity entry in [14] was “inhibitor [+]”.
For `CO[C@@]12[C@H](COC(N)=O)C3=C(C(=O)C(C)=C(N)C3=O)N1C[C@@H]1N[C@@H]12` [MITOMYCIN], in [15], the Activity entry is “is not an inhibitor [-]”.

These data come from ChEMBL document CHEMBL2074246, “Distinct groups of multidrug resistance modulating agents are distinguished by competition of P-glycoprotein-specific antibodies” (Biochem Biophys Res Commun, 2004).
